Data set [1] concerns the target T1, Sirt6 (Homo sapiens, UniProt Q8N6T7). The data set is described as follows: Sirt6-dependent peptide deacetylation, FLUOR DE LYS / Sirt6 fluorometric activity kit. The class given is biochemical. The following applies: mean ± SD, at least two independent experiments; for Activation Fold 30 μM: compound at 30 μM; for Activation Fold 100 μM: compound at 100 μM.
Description: Sirt6/Sirt1/Sirt2/Sirt3 activity was tested by Activity Assay Kits (Abcam) according to the manufacturer's instruction with minor modification. […] All experiments were conducted at room temperature.
Data set [2] deals with T1, Sirt6. The data set is described as follows: Nucleosome test: Sirt6-dependent H3K9 deacetylation of nucleosomes from HEK293T cells, Western blot. The class given is biochemical. The following applies: 100 μM, 30° C., 60 minutes. The method, then:
(§1) . Nucleosomes extracted from HEK293T cells were incubated with 100 μM of selected compounds or Vehicle at 30° C. for 60 minutes. Acetylated H3K9 and total H3 were detected by Western blot. The level of acetylated H3K9 was quantified by Image Lab software. FIGS. 5B and 5C show the cell viability which was assessed by MTT assay. R28 cells were treated with 30 μM or 100 μM compounds for 24 hours. Data were presented as mean±SEM. The experiment was repeated at least three times. ***p<0.001; ****p<0.0001.
Next, effects of selected compounds were explored for Sirt6-dependent deacetylation of complete nucleosomes extracted from human embryonic kidney (HEK) 293T cells, as nucleosomes represent more physiologically relevant substrates. […]. Briefly, HEK 293T cells in 100 mm dish were lysed with lysis buffer supplemented with PIC and PMSF for 30 min. After centrifugation for 10 min at 5000 rpm at 4° C., supernatant was removed and nuclei pellet was resuspended with digestion buffer supplemented with PIC and PMSF for 5 min at 37° C. Working enzymatic sharing cocktail was added to digest the chromatin, and EDTA was added after incubation to stop the digestion. Digested nucleosome was obtained in the supernatant after centrifugation for 10 min at 15000 rpm at 4° C. and the concentration was quantified by measuring the absorbance at […]. 20 μg nucleosome was incubated in solution (1× buffer, 0.5 μL recombinant Sirt6 and […] NAD, from SIRT6 ACTIVITY ASSAY KIT) for 60 min. To test the effects of the compounds on Sirt6 activity, corresponding compound or DMSO control was added before incubation. The reaction mixture was analyzed by Western blot.
Proteins were extracted from cells with PIERCE RIPA BUFFER (89901, ThermoFisher Scientific), and protein concentration was determined using PIERCE BCA PROTEIN ASSAY KIT (23225, ThermoFisher Scientific). Equal amounts of protein were loaded and separated by SDS-PAGE gel. Next, separated proteins were transferred onto Nitrocellulose Blotting Membranes (A29457237, GE Healthcare Life science), and then the membranes were blocked by 5% non-fat dry milk. After incubation with corresponding primary antibodies against H3K9ac, H3 and Sirt6 at a 1:1000 dilution, or α-tubulin at a 1:5000 dilution, goat anti-mouse or goat anti-rabbit secondary antibodies at a 1:5000 dilution were applied. Finally, membranes were incubated with enhanced chemiluminescent and protein bands were detected by CHEMIDOC imaging system (Bio-Rad). Image-Lab software was used to analyze the intensities of the protein bands.
For orientation: A western blot detects proteins with antibodies after separation by electrophoresis.

In data set [3] the test system is retinal precursor cells (R28). The data set is described as follows: MTT cell viability assay in R28 cells. The class given is cell-based. The following applies: 24 hours. The method, then:
as §1, with “FIGS. 5A-5C: FIGS. 5A-5C display the deacetylation effect and cytotoxicity of selected compounds. […] Nucleosomes” for “. Nucleosomes”
R28 cells were seeded in 96 well plates at a density of 1×10^4/well overnight, then treated with compounds for 24 h. MTT (MilliporeSigma) was added to cells (20 μL/well) and incubated for 3.5 h. After medium was removed, 100 μL dimethyl sulfoxide (DMSO) was added into each well. Absorbance was measured at 540 nm using a microplate reader.
In general terms: Tetrazolium assays rely on reduction of a dye to a coloured formazan, in cell work by metabolically active cells.

For data set [4], the system named is H1299 cells. The data set is described as follows: Acetylated H3K9 / total H3 in H1299 cells, Western blot. The class given is cell-based. The following applies: 30 μM, 24 hours.
For data set [5], the system named is PLC/PRF/5 cells. The data set is described as follows: Acetylated H3K9 / total H3 in PLC/PRF/5 cells, Western blot. The class given is cell-based. The following applies: 30 μM, 24 hours.
Data set [6] has as its system H1299 cells. The data set is described as follows: Colony formation assay in H1299 cells. The class given is cell-based. The following applies: 30 μM, one week.
Data set [7] deals with PLC/PRF/5 cells. Description: Colony formation assay in PLC/PRF/5 cells. The class given is cell-based. The following applies: 30 μM, one week.
In a further data set the test system is BV2 cells. The data set is described as follows: LPS-induced inflammatory gene mRNA expression in BV2 cells, q-PCR. The class given is cell-based, murine. The following applies: for LPS-induced expression of IL-1β, IL-6, MCP-1, and TNFα: 30 μM pretreatment 30 minutes; for LPS-induced proinflammatory cytokine/chemokine production: summary statement.
The test system of a further data set is SARS-CoV-2. The data set is described as follows: microbe, parasite or virus in culture. The class given is cell-based.
A further data set addresses T2, Sirt1 (Homo sapiens, UniProt Q96EB6).
T2 sequence (Q96EB6 1-747): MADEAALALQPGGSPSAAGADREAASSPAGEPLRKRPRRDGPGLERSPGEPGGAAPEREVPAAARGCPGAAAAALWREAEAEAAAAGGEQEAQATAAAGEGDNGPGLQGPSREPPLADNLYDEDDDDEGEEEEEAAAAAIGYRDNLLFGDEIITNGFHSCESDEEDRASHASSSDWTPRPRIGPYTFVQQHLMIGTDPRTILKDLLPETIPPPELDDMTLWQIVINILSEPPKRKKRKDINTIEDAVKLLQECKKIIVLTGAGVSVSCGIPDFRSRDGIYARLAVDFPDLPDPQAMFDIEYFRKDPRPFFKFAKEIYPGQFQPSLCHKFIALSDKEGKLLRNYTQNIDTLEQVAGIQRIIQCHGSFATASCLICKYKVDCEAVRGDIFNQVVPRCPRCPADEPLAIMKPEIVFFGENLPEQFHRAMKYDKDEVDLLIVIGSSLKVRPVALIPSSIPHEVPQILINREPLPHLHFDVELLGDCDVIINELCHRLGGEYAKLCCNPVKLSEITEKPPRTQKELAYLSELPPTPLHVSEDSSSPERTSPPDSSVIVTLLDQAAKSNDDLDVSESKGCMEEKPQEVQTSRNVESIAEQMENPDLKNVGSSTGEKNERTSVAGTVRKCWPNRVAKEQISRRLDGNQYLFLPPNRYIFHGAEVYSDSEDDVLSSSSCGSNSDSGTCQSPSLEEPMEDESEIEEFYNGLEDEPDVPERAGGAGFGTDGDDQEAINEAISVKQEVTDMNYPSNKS
Description: Sirt1 deacetylation activity assay kit. The following applies: time course, FIG. 3.

Another data set deals with A549-hACE2 cells. The data set is described as follows: Cell viability assay in A549-hACE2 cells. The following applies: 50 μM, 48 h.
The conditions of data set [8]: in mice; literature; cited from earlier work.
Data set [9] concerns colorectal cancer (CRC) cell lines. The following applies: various CRC cell lines; literature; cited from earlier work.
The subject of the next data set is CRC tumor. The following applies: cell line- and patient-derived xenografts, APCmin/+ spontaneous CRC model; literature; cited from earlier work. On the technique in general: A xenograft is tissue or cells of one species grown in another, often human tumour cells in immunodeficient mice.
Data set [10] concerns the target T1, Sirt6. The following applies: literature value; cited from earlier work.
A further data set deals with Sirt1, 2, and 3. The following applies: literature; cited from earlier work.
Data set [11] deals with human hepatocellular carcinoma (HCC) cells. The following applies: literature, cited from earlier work.
The next data set relates to HCC tumor. The following applies: mouse xenograft models; literature; cited from earlier work.
Setting [12] is: BV2 cells, 100 ng/mL LPS 6 hours, mRNA.

SMILES strings stand for the structures. “Also recorded” adds a separate entry of the source.

T1 sequence (Q8N6T7 whole entry): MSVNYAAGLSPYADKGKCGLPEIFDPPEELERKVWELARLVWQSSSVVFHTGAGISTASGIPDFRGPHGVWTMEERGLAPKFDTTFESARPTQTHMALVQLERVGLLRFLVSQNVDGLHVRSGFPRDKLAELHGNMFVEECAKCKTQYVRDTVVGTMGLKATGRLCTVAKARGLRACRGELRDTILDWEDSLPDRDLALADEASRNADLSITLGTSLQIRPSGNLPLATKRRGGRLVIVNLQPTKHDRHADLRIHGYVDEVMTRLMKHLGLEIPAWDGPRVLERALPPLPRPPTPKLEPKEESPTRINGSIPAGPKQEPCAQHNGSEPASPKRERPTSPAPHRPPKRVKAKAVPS

`OCCN1CCN(c2ncccc2C2Nc3ccccc3-n3cccc32)CC1` (centres unmarked) [Compound 35, 2-(4-(3-(4,5-Dihydropyrrolo[1,2-a]quinoxalin-4-yl)pyridin-2-yl)piperazin-1-yl)ethan-1-ol]: the “Activation Fold 30 μM” value on Sirt6 [1] worked out at 2.92 ± 0.06 fold. The “Activation Fold 100 μM” value on Sirt6 [1] worked out at 5.72 ± 0.69 fold. The “acetylation of H3K9 in the nucleosome test” value at Sirt6 [2] is listed as “significantly decreased the acetylation of H3K9”. The “toxicity on retinal precursor cells (R28)” value in data set [3] (30 μM) and in data set [3] (100 μM) was “no obvious toxicity” each time. The “Sirt6 deacetylation of H3K9 (acetylated H3K9 to total H3)” value in the data set with H1299 cells [4] and in the data set with PLC/PRF/5 cells [5] was “no obvious influence” each time. Also, the colony formation entry with H1299 cells [6] and with PLC/PRF/5 cells [7] was “only a slight inhibitory effect” in each case. The “LPS-induced expression of IL-1β, IL-6, MCP-1, and TNFα” value (from here on “LPS-induced expression of IL-1β”) in the data set on BV2 cells (setting [12]) is “strongly inhibited”. Also, in the data set on BV2 cells (BV2 cells, 30 μM, 100 ng/mL LPS 6 hours, mRNA), the ICAM-1 induction entry is “slight inhibition”. In the data set on BV2 cells, the “LPS-induced proinflammatory cytokine/chemokine production” value was “strongly repressed”. In addition, in the data set on SARS-CoV-2, the “potency in inhibiting SARS-CoV-2 infection (in words)” value is “micromolar potency”. Besides, the “effect on Sirt1 deacetylation” value on Sirt1 is given as “no significant effects”. Further, in the data set with A549-hACE2 cells, the “cytotoxicity at the highest tested concentration” value is listed as “none of these compounds exhibited significant cytotoxicity”.
Take `Cc1cc(F)c(Br)cc1NS(=O)(=O)c1ccc(NS(=O)(=O)c2cc(Cl)cc(Cl)c2)cc1CN1CCOC[C@H]1C` [MDL-811]: the “bioavailability (F)” value in data set [8] is 92.96%. In addition, the antiproliferative effects entry in data set [9] was “broad antiproliferative effects”. Further, the anti-tumor efficacy entry in the data set on CRC tumor is given as “in vivo anti-tumor efficacy”.
Take `c1cncc(C2Nc3ccccc3-n3cccc32)c1` (centres unmarked) [UBCS039, reference compound]: the “LPS-induced expression of IL-1β” value in the data set with BV2 cells (setting [12]) is given as “strongly inhibited”. In addition, the “potency in inhibiting SARS-CoV-2 infection (in words)” value with SARS-CoV-2 is “micromolar potency”. In addition, on Sirt6 [10], the “maximum activation (Emax) of Sirt6 deacetylation” value was ~2 fold. The “effects on basal Sirt1, 2, and 3 deacetylation activities” value in the data set on Sirt1, 2, and 3 is listed as “no obvious effects”.
`COC(=O)c1cc(NS(=O)(=O)c2cc(Cl)cc(Cl)c2)ccc1S(=O)(=O)Nc1cc(Br)c(F)cc1C` [MDL-800]: the “H3K9 and H3K56 deacetylation” value in [11] (human HCC cells, dose-dependently) is recorded as “significantly promoted”. In addition, the “proliferation of HCC cells” value in [11] is recorded as “inhibited their proliferation”. For the same compound, the HCC tumor growth entry with HCC tumor is reported as “suppressed HCC tumor growth”.
In the case of `COCCN1CCN(c2ncccc2C2Nc3ccccc3-n3cccc32)CC1` (centres unmarked) [Compound 36, 4-(2-(4-(2-Methoxyethyl)piperazin-1-yl)pyridin-3-yl)-4,5-dihydropyrrolo[1,2-a]quinoxaline], the “Activation Fold 30 μM” value on Sirt6 [1] is recorded as 3.17 ± 0.21 fold. Moreover, the “Activation Fold 100 μM” value at Sirt6 [1] is listed as 6.06 ± 0.13 fold. Further, the “acetylation of H3K9 in the nucleosome test” value at Sirt6 [2] is “significantly decreased the acetylation of H3K9”. The “toxicity on retinal precursor cells (R28)” value in data set [3] (30 μM) and in [3] (100 μM) was “no obvious toxicity” throughout. The “Sirt6 deacetylation of H3K9 (acetylated H3K9 to total H3)” value in the data set with H1299 cells [4] and in the data set with PLC/PRF/5 cells [5] was “significantly activated Sirt6 to deacetylate H3K9” in each case. The “decrease of acetylated H3K9 when Sirt6 was knockdown by siRNA” value with H1299 cells [4] (Sirt6 siRNA) and in the data set on PLC/PRF/5 cells [5] (Sirt6 siRNA) was “abolished” in each case. Further, the colony formation result in the data set with H1299 cells [6] and in the data set on PLC/PRF/5 cells [7] was “significantly inhibited; also recorded: about half” in each case. For the same compound, the “LPS-induced expression of IL-1β” value in the data set with BV2 cells (setting [12]) is on record as “strongly inhibited”. In addition, the “LPS-induced proinflammatory cytokine/chemokine production” value in the data set with BV2 cells is “strongly repressed”. Further, the “potency in inhibiting SARS-CoV-2 infection (in words)” value with SARS-CoV-2 is “micromolar potency”. Besides, the “effect on Sirt1 deacetylation” value on Sirt1 was “no significant effects”. Besides, in the data set on A549-hACE2 cells, the “cytotoxicity at the highest tested concentration” value was “none of these compounds exhibited significant cytotoxicity”.

The values above are taken from patent US20240327411A1, “SIRT6 ACTIVATORS” (The Board of Regents of The University of Texas System, priority 2022, published 2024).
